Experiments:
HSP70 = target: T1, HSP70 (Homo sapiens, UniProt P0DMV8, E110D); assay: ITC of HSP70 preincubated with competing compound; assay type: binding; settings: ITC competition
T1 construct: His6 (N); made in house; host or cells: E. coli BL21 Star (DE3)
From the text: FIGS. 3A-3L illustrate that PET-16 binds directly to ADP-bound HSP70 and DnaK. Specifically, FIGS. 3A-3H are isothermal calorimetric titration (ITC) assays of the indicated compounds (NRLLLTG—SEQ ID NO: 7, PES or PET-16) with purified HSP70-ADP, DnaK-ADP or HSP70-ATP proteins. The data are representative of three independent experiments. FIGS. 3I and 3J are ITC assays for the interaction between HSP70 (aa 386-616 of SEQ ID NO: 2) protein and PET-16 (I) or TPP (J). Binding constants (Kd values) are shown (average and s.d. from three independent experiments). PET-16 also binds directly to the purified, full-length, nucleotide-free HSP70 protein, with a reported dissociation constant of 5.2+/−0.1 micromolar, which is the average and standard deviation from two independent experiments (data not shown). FIG. 3K is ITC assay of HSP70 protein preincubated with ADP and PES for 1 h. The mixture was titrated into the sample cell containing PET-16. The data are representative of three independent ITC experiments. FIG. 3L are western blots of human lung carcinoma (H1299) cells that were pretreated with DMSO or excess (8×) PET-16 for 1 h prior to the addition of 20 μM B-PES for 5 h and examined for the expression of HSP70 or BCL-xL. B-PES-containing complexes were captured by Avidin resins and immunoblotted either with anti-HSP70 or anti-BCL-xL antibody. […]

ATP-bound DnaK = target: T2, ATP-bound DnaK (Escherichia coli, UniProt P0A6Y8); assay: ITC binding to ATP-bound DnaK; design: species or system E. coli; settings: in words
T2 construct: Full-length recombinant proteins of HSP70 (aa 1-641) as well as DnaK (aa 1-638); His6 (N); made in house; host or cells: E. coli BL21 Star (DE3)
T2 sequence (P0A6Y8 whole entry, the tested form may be a part): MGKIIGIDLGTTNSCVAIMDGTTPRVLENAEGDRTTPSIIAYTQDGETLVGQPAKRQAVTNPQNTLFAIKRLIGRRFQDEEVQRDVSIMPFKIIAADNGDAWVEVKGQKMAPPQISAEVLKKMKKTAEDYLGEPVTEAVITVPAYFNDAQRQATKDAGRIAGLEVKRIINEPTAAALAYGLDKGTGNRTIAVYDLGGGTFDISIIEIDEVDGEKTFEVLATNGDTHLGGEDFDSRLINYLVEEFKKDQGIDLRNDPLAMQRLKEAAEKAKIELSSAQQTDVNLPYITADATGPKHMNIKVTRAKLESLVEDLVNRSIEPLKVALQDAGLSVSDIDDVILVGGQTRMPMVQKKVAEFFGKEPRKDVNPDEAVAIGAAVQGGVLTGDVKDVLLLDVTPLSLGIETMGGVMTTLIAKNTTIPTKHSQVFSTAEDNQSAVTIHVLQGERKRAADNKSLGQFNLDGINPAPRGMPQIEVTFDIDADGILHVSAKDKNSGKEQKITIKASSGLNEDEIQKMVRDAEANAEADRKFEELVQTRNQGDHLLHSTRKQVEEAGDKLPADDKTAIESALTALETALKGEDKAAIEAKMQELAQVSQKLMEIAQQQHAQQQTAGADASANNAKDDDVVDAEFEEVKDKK
From the text: The human stress-inducible HSP70 (residues 1-641 or 386-616 of SEQ ID NO: 2) and E. coli DnaK (residues 1-638, 389-607, or 393-507 of SEQ ID NO: 4) were cloned into the pET25 vector (EMD Millipore Chemicals, Inc., Billerica, Mass., USA) between the NdeI and XhoI restriction sites. The full-length HSP70 and DnaK mutants were constructed by PCR-based site-directed mutagenesis using the QuikChange™ Site-Directed Mutagenesis Kit (Agilent Technologies, Inc., Santa Clara, Calif., USA). All plasmid inserts were verified by DNA sequencing. All HSP70 and DnaK variants were produced with a N-terminal His6-tag in the E. coli BL21 Star (DE3) strain (Invitrogen catalog number C6010-03). The resulting strains were grown at 37° C. in LB medium containing 50 μg/mL of carbenicillin (Sigma-Aldrich Co., St. Louis, Mo., USA). At an OD600 about 0.3 to about 0.5, protein expression was induced with 0.5 mM isopropyl-β-D-thiogalactopyranoside (IPTG), and cells were subsequently grown at 25° C. for about 16 h. Cells were collected by centrifugation and resuspended in the Bugbuster® Master Mix (EMD Millipore Chemicals catalog number 71456-4), supplemented with protease inhibitors, 1 mM diethiothreitol (DTT) and 20 mM imidazole. The His6-tagged fusion proteins were isolated on Ni^2+-chelating resins (Ni-NTA Superflow, Qiagen catalog number 30410) by standard procedures. […]

T1 sequence (P0DMV8 whole entry E110D): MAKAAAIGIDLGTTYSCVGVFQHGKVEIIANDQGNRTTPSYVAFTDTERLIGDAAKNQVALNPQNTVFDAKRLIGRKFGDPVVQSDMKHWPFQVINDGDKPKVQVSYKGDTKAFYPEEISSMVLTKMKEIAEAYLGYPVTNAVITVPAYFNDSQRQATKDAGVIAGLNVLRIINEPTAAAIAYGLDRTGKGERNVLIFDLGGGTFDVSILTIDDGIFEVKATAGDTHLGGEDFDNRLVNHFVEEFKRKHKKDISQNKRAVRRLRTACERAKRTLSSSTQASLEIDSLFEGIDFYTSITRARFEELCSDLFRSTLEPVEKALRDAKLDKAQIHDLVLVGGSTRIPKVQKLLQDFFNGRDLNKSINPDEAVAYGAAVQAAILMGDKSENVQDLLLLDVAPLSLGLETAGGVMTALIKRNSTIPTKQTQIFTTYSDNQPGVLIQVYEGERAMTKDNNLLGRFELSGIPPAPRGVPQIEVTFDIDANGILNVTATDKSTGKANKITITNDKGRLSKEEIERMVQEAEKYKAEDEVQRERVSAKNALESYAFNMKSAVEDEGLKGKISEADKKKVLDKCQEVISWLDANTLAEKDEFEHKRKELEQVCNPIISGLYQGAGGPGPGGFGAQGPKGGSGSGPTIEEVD

SMILES	binding to HSP70 after pre-incubation with the other compound (PES / PET-16) (HSP70)	interaction with ATP-bound DnaK (ATP-bound DnaK)
C(#C[P+](c1ccccc1)(c1ccccc1)c1ccccc1)c1ccccc1.[Br-] [PET-16, triphenyl(phenylethynyl)phosphonium bromide]	markedly reduced	notably reduced
NS(=O)(=O)C#Cc1ccccc1 [PES, 2-Phenylethynesulfonamide, reference compound]	impaired	notably reduced

— patent publication US10010560B2, “Small molecule HSP70 inhibitors” (THE TRUSTEES OF THE UNIVERSITY OF PENNSYLVANIA, priority 2014, dated 2018)
